Patent US20200239412A1, “NEW DERIVATES OF DHAA WITH ELECTROSTATIC TUNING” (priority 2017, published 2020)
Values joined by “and” are separate entries in the source; they are usually repeats but may differ in a detail not shown here. Identical values can stand only once. Counter-ions that a name gives are not always drawn.

Legend:
Assay type in all cases: cell-based
[1] = molecular target: 3R Shaker Kv channel (M356R/A359R) (Drosophila melanogaster, UniProt P08510, A359R/DEL6-46/M356R); assay: in vitro; settings: for G(V) shift: mean; for pKa at 100 μM: Drosophila, functional pH dependence, read-out: Functional pKa (pH where half of the maximum G(V) shift was achieved)
Chain of 3R Shaker Kv channel (M356R/A359R) (P08510 other isoform, or with tags, fused parts or gaps DEL6-46/M356R/A359R): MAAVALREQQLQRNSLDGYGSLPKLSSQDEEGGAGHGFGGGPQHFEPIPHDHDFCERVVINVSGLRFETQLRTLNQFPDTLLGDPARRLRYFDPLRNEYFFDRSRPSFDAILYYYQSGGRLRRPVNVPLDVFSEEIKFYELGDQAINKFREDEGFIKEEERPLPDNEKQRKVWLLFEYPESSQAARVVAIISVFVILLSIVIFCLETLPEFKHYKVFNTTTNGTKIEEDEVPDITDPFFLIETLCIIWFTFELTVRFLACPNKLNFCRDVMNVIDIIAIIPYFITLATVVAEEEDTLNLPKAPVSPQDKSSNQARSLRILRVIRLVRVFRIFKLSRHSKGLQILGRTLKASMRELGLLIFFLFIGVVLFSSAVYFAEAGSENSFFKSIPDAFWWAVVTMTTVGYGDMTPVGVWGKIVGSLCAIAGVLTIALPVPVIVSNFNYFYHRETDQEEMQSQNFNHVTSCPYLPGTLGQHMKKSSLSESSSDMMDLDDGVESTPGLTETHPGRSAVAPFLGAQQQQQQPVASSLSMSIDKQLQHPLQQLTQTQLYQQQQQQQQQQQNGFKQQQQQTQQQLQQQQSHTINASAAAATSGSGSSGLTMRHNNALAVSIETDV
From the text: (§1) Experiments were made with the Shaker H4 channel incapable of fast N-type inactivation due to a Δ6-46 deletion, referred to as the wt Shaker Kv channel. The 3R Shaker Kv channel with two additional positively charged arginines (M356R/A359R) in the extracellular end of S4, was also used.
(§2) For the Shaker channels, Bluescript II KS(+) plasmid was linearized with HindIII and synthesis of cRNA were made with the T7 mMessage mMachine kit (Ambion, Austin, Tex.). Point mutations around S4, on the Shaker Kv channel, were introduced using QuickChange Site-Directed Mutagenesis Kit (Agilent Technologies, Santa Clara, Calif.) and sequencing were used for verification.
(§3) 50 nl cRNA was injected into Xenopus laevis oocytes using a Nanoject injector (Drummond Scientific, Broomall, Pa.) and the oocytes were stored at 8° C. in a modified Barth's solution (MBS) before experiments (16° C., M-channel, 1-2 days). The MBS contained (in mM): 88 NaCl, 1 KCl, 2.4 NaHCO3, 15 HEPES, 0.33 Ca(NO3)2, 0.41 CaCl2), and 0.82 MgSO4, pH was adjusted to 7.5 by NaOH and the MBS was supplemented sodium pyruvate (2.5 mM). All animal experiments were approved by the Linkoping's local Animal Care and Use Committee.
(§4) Currents were measured 1-6 days after cRNA injection using the two-electrode voltage clamp technique (GeneClamp 500B amplifier, Axon instruments). Signals were low pass filtered at 5 kHz and digitized by a Digidata 1440A converter (Molecular Devices, Sunnyvale, Calif.). The amplifiers leak compensation was used and Clampex 10.2 software (Molecular Devices) was used to obtain data and create voltage protocols. The extracellular control solution contained (in mM): 1 KCl, 88 NaCl, 0.8 MgCl2, 0.4 CaCl2) and 15 HEPES. pH were adjusted with NaOH. Electrode pipettes were made from borosilicate glass capillaries (Harvard apparatus, Kent, UK) using a two stage electrode puller (Narishige, Tokyo, Japan) and resistance was between 0.5-2.0 MO once filled with 3 M KCl solution. In the voltage protocol for the wt and 3R Shaker channel, holding potential was set to −80 mV and steady-state currents were measured at voltages between −80 and +50 mV (wt Shaker Kv channel) or +70 mV (3R Shaker Kv channel), using 5 mV increments, 100 ms. […] Physiol. 143, 173-182 (2014). For the M-channel, holding potential was set to −100 mV, test-voltages were measured between −120 and +50 mV (10 mV increments for 2 s) and tail currents were measured at −30 mV.
(§5) Control solution was perfused to the recording chamber (0.5 ml/min) and the test solution was added manually with a syringe, in a volume large enough to replace the control solution manifold. Resin acids compounds were dissolved in DMSO (100 mM) and stored at −20° C. Just prior to experiment the compound was diluted to desired concentration in control solution. Recovery was measured after continuously perfusion of control solution, maximum 5 min. All recordings were made with the perfusion off. Experiments were carried out in room temperature (20-23° C.) and chemicals were purchased from Sigma Aldrich if not stated otherwise.
(§6) Currents were leak subtracted and steady-state currents were measured 80-86 ms after onset of the test voltages (Clampfit 10.5, Molecular Devices). K conductance, GK, was calculated using,
(§7) where IK is the steady-state current, V the absolute membrane voltage and VK the reversal potential for K ions (−80 mV), and the following Boltzmann curve was used to fit the data:
(§8) GK(V)=A/(1+exp((V1/2−V)/s)^n (2)
(§9) where A is the amplitude of the curve, V1/2 the midpoint when n=1, s the slope and n an exponent for better curve fitting, set to n=4. The voltage shift was calculated at 10% of maximal conductance in control curve.
(§10) To quantify the concentration dependence or pH dependence of the GK(V) shifts the following equation was used:
(§11) ΔVG(V)=ΔVMAX/(1+c1/2/c), (3)

[2] = molecular target: wt Shaker Kv channel (Shaker H4, Δ6-46) (Drosophila melanogaster, UniProt P08510, DEL6-46); assay: Two-electrode voltage clamp, G(V) shift on wt Shaker Kv channel expressed in Xenopus laevis oocytes; settings: mean
Chain of wt Shaker Kv channel (Shaker H4, Δ6-46) (P08510 other isoform, or with tags, fused parts or gaps DEL6-46): as the sequence (P08510 other isoform, or with tags, fused parts or gaps DEL6-46/M356R/A359R) above, with R315M, R318A counted along it
From the text: as §1, §2, §3, §4, §5, §6, §7, §8, §9, §10, §11

[3] = molecular target: T1, hKv7.2/Kv7.3 (M-channel) (Homo sapiens, UniProt O43525+O43526); assay: Two-electrode voltage clamp, G(V) shift on human M-channel expressed in Xenopus laevis oocytes; settings: for G(V) shift: mean
T1 construct: expressed in transfected cells; host or cells: Xenopus laevis oocytes (cRNAs mixed 1:1)
Procedure: Experiments were also made with the human hKv7.2/Kv7.3, referred to as the M-channel. cRNAs were mixed in a 1:1 molar ratio before injection into oocytes. hKv7.2 [GenBank Acc. No. NM_004518]. hKv7.3 [GenBank Acc. No NM_004519].
as §3, §4, §5
For the M channel tail currents were measured 18 ms after onset and then plotted against the test voltage. The Boltzmann curve (Eq. 2) was used to fit data and the slope was set to shared value between control and test compound. V1/2 was used to calculate the GK(V) shift.
as §10, §11
where ΔVG(v) is the voltage shift, ΔVMAX is the amplitude of the curve, c the concentration, c1/2 the concentration at which half maximum response occur. For compounds with no pH dependence the data was fitted with a horizontal line, with the slope set to 0.

SMILES: CC(C)C1=CC2=CC[C@@H]3[C@](C)(CCC[C@@]3(C)C(=O)O)[C@H]2CC1 [AA, abietic acid, reference compound]
- G(V) shift ([1]; pH 7.4, 100 μM): −16.05 mV

SMILES: CC(C)c1ccc2c(c1)CC[C@H]1[C@](C)(C(=O)NCC(=O)O)CCC[C@]21C [Wu117, ((1R,4aS,10aR)-7-isopropyl-1,4a-dimethyl-1,2,3,4,4a,9,10,10a-octahydrophenanthrene-1-carbonyl)glycine]
- G(V) shift ([1]; pH 7.4, 100 μM): −7.27 mV
- G(V) shift ([1]; pH 10, 100 μM): −5.27 mV
- G(V) shift ([2]; pH 10, 100 μM): −0.80 mV

SMILES: CC(C)c1ccc2c(c1)CC[C@H]1[C@](C)(C(=O)N[C@@H](CC(=O)O)C(=O)O)CCC[C@]21C [Wu148, ((1R,4aS,10aR)-7-isopropyl-1,4a-dimethyl-1,2,3,4,4a,9,10,10a-octahydrophenanthrene-1-carbonyl)-L-aspartic acid]
- G(V) shift ([1]; pH 5.5, 100 μM): −13.30 mV
- G(V) shift ([1]; pH 6.5, 100 μM): −14.23 mV
- G(V) shift ([1]; pH 7.4, 100 μM): −14.47 mV
- G(V) shift ([1]; pH 9, 100 μM): −11.20 mV
- G(V) shift ([1]; pH 10, 100 μM): −9.53 mV
- G(V) shift ([2]; pH 7.4, 100 μM): −0.73 mV

SMILES: CC(C)c1ccc2c(c1)CC[C@H]1[C@](C)(C(=O)NCCCC(=O)O)CCC[C@]21C [Wu149, 4-((1R,4aS,10aR)-7-isopropyl-1,4a-dimethyl-1,2,3,4,4a,9,10,10a-octahydrophenanthrene-1-carboxamido)butanoic Acid]
- G(V) shift ([1]; pH 7.4, 100 μM): −4.80 mV
- G(V) shift (example recording, normalized G(V) curves) ([1]; pH 7.4, 100 μM, single recording of FIG. 2C): −5.3 mV
- G(V) shift ([1]; pH 10, 100 μM): −5.17 mV
- G(V) shift ([2]; pH 10, 100 μM): −0.57 mV

SMILES: CC(C)c1ccc2c(c1)CC[C@H]1[C@](C)(C(=O)NCCCS(=O)(=O)O)CCC[C@]21C [Wu150, 3-((1R,4aS,10aR)-7-isopropyl-1,4a-dimethyl-1,2,3,4,4a,9,10,10a-octahydrophenanthrene-1-carboxamido)propane-1-sulfonic acid]
- G(V) shift ([1]; pH 7.4, 100 μM): −9.98 mV
- G(V) shift ([2]; pH 7.4, 100 μM): −4.18 mV

SMILES: CC(C)c1ccc2c(c1)CC[C@H]1[C@](C)(C(=O)NCCCC(=O)NCCCC(=O)O)CCC[C@]21C [Wu151, 4-(4-((1R,4aS,10aR)-7-isopropyl-1,4a-dimethyl-1,2,3,4,4a,9,10,10a-octahydrophenanthrene-1-carboxamido)butanamido)butanoic Acid]
- G(V) shift ([1]; pH 7.4, 100 μM): −2.53 mV

SMILES: CC(C)c1ccc2c(c1)CC[C@H]1[C@](C)(C(=O)NCCC(=O)O)CCC[C@]21C [Wu152, 3-((1R,4aS,10aR)-7-isopropyl-1,4a-dimethyl-1,2,3,4,4a,9,10,10a-octahydrophenanthrene-1-carboxamido)propanoic Acid]
- G(V) shift ([1]; pH 7.4, 100 μM): −6.2 mV
- G(V) shift ([1]; pH 10, 100 μM): −5.20 mV
- G(V) shift ([2]; pH 10, 100 μM): −1.17 mV

SMILES: CC(C)c1ccc2c(c1)CC[C@H]1[C@](C)(C(=O)NCCC(=O)NCCC(=O)O)CCC[C@]21C [Wu153, 3-(3-((1R,4aS,10aR)-7-isopropyl-1,4a-dimethyl-1,2,3,4,4a,9,10,10a-octahydrophenanthrene-1-carboxamido)propanamido)propanoic Acid]
- G(V) shift ([1]; pH 7.4, 100 μM): −2.54 mV

SMILES: CC(C)c1ccc2c(c1)CC[C@H]1[C@](C)(C(=O)NCCS(=O)(=O)O)CCC[C@]21C [Wu154, 2-((1R,4aS,10aR)-7-isopropyl-1,4a-dimethyl-1,2,3,4,4a,9,10,10a-octahydrophenanthrene-1-carboxamido)ethane-1-sulfonic Acid]
- pKa at 100 μM [1]: < 7.4
- G(V) shift ([1]; pH 7.4, 100 μM): −9.85 mV
- G(V) shift ([3]; pH 7.4, 100 μM): −4.60 mV
- G(V) shift ([2]; pH 7.4, 100 μM): −2.48 mV

SMILES: CC(C)C1=CC2=CC[C@H]3[C@](C)(C(=O)NCCCC(=O)O)CCC[C@]3(C)C2CC1 (stereo partly drawn) [Wu157, 4-((1R,4aR,4bR,10aR)-7-isopropyl-1,4a-dimethyl-1,2,3,4,4a,4b,10,10a-decahydrophenanthrene-1-carboxamido)butanoic Acid]
- G(V) shift ([1]; pH 7.4, 100 μM): −7.10 mV

SMILES: CC(C)c1ccc2c(c1)CC[C@H]1[C@](C)(C(=O)NCP(=O)(O)O)CCC[C@]21C [Wu158, (((1R,4aS,10aR)-7-isopropyl-1,4a-dimethyl-1,2,3,4,4a,9,10,10a-octahydrophenanthrene-1-carboxamido)methyl)phosphonic Acid]
- G(V) shift ([1]; pH 7.4, 100 μM): −4.94 mV

SMILES: CC(C)c1ccc2c(c1)CC[C@H]1[C@](C)(COP(=O)(O)O)CCC[C@]21C [Wu162, ((1R,4aS,10aR)-7-isopropyl-1,4a-dimethyl-1,2,3,4,4a,9,10,10a-octahydrophenanthren-1-yl)methyl Dihydrogen Phosphate]
- G(V) shift ([1]; pH 6.5, 100 μM): −10.03 mV
- G(V) shift ([1]; pH 7.4, 100 μM): −11.80 mV
- G(V) shift ([1]; pH 9, 100 μM): −11.55 mV
- G(V) shift ([1]; pH 10, 100 μM): −8.93 mV
- G(V) shift ([2]; pH 7.4, 100 μM): −1.18 mV

SMILES: CC(C)c1ccc2c(c1)CCC1[C@](C)(/C=C/C(=O)O)CCC[C@]21C (stereo partly drawn) [Wu176, (E)-3-((1S,4aS)-7-isopropyl-1,4a-dimethyl-1,2,3,4,4a,9,10,10a-octahydrophenanthren-1-yl)acrylic Acid]
- pKa at 100 μM [1]: 6.8
- G(V) shift ([1]; pH 5.5, 100 μM): 2.80 mV
- G(V) shift ([1]; pH 7.4, 100 μM): −15.16 mV
- G(V) shift ([1]; pH 10, 100 μM): −17.10 mV

SMILES: CC(C)c1ccc2c(c1)CCC1[C@](C)(CC(=O)O)CCC[C@]21C (stereo partly drawn) [Wu180, 2-((1S,4aS)-7-isopropyl-1,4a-dimethyl-1,2,3,4,4a,9,10,10a-octahydrophenanthren-1-yl)acetic acid]
- pKa at 100 μM [1]: 7.3
- G(V) shift ([1]; pH 5.5, 100 μM): 1.575 mV
- G(V) shift ([1]; pH 7.4, 100 μM): −11.04 mV
- G(V) shift ([1]; pH 10, 100 μM): −19.18 mV
- G(V) shift ([2]; pH 10, 100 μM): −2.40 mV

SMILES: C[C@@]1(COS(=O)(=O)O)CCC[C@]2(C)c3cc(Cl)c(Cl)c(Cl)c3CC[C@@H]12 [Wu181, ((1R,4aS,10aR)-6,7,8-trichloro-1,4a-dimethyl-2,3,4,9,10,10a-hexahydrophenanthrene-1-yl)methyl hydrogen sulfate]
- Increase of affinity compared to DHAA (factor) ([1]; pH 7.4): 16
- Increase of affinity compared to Wu161 and Wu50 (factor) ([1]; pH 7.4): 6
- Increase of amplitude/efficacy compared to DHAA (factor) ([1]; pH 7.4): 2.0
- Increased G(V) shift at low concentrations compared to DHAA (factor) ([1]; pH 7.4): 32
- G(V) shift ([1]; pH 7.4, 3 μM): −21.3±2.9 mV
- G(V) shift ([1]; pH 7.4, 10 μM): −31.90 mV
- ΔVMAX (maximum shift) ([1]; pH 7.4, concentration-response of G(V) shift): −53.6 mV and −53.6±4.0 mV
- EC50 ([1]; pH 7.4, concentration-response of G(V) shift, read-out: c1/2 (half-maximal concentration)): 6.1 µM
- ΔVMAX (maximum shift) ([3]; concentration-response of G(V) shift): −42.1 mV and −42.1±5.7 mV
- EC50 ([3]; concentration-response of G(V) shift, read-out: c1/2 (half-maximal concentration)): 12.4 µM
- G(V) shift ([3]; pH 7.4, 10 μM): −18.9±2.4 mV and −18.90 mV
